Data reported in US8372967B2, “Compounds and methods for modulating expression of GCCR” (Isis Pharmaceuticals, Inc., priority 2006, dated 2013).
Strand notation (5' to 3'): a small letter for the sugar, then the base; units joined by * are phosphorothioate-linked, units joined directly phosphodiester-linked; [ ] holds rarer units or linkages, { } end groups; capitals alone tell only the bases. e = 2'-O-(2-methoxyethyl) (MOE); [5mC] = 5-methylcytosine; d = 2'-deoxy (DNA)

Tests used:
rat DGAT2 mRNA = test: Dose-dependent inhibition of DGAT2 in A10 cells (Tables 82, 83); type: cell-based
Method: Additional short antisense compounds targeted to DGAT2 mRNA were tested in vitro in a dose-response experiment. A10 cells were prepared as described above and treated with 6.25, 12.5, 25.0, 50.0, 100.0, and 200.0 nM short antisense compounds to determine if DGAT2 inhibition occurs in a dose-dependent manner. […] Results are presented as percent inhibition, relative to untreated control cells.
Additional short antisense compounds targeted to DGAT2 mRNA were tested in vitro. A10 cells were prepared as described above and treated with 0.62, 1.85, 5.56, 16.67, 50.0, and 150.0 nM short antisense compounds to determine if DGAT2 inhibition occurs in a dose-dependent manner. DGAT2 mRNA was measured using quantitative real-time PCR, as described herein. […] Results are presented as percent inhibition of rat DGAT2, relative to untreated control cells.

PCSK9 mRNA = type: cell-based, human; conditions: Hep3B cells, 100 nM, relative to untreated control cells; for % Inhib: 0 = no reduction observed
Method: When cells reached appropriate confluency, they were treated with oligonucleotide using LIPOFECTIN® as described. […] Cells were treated and data were obtained in duplicate or triplicate. […] Cells were harvested 16-24 hours after oligonucleotide treatment.
Prior to quantitative PCR analysis, primer-probe sets specific to the target gene being measured were evaluated for their ability to be “multiplexed” with a GAPDH amplification reaction. After isolation the RNA is subjected to sequential reverse transcriptase (RT) reaction and real-time PCR, both of which are performed in the same well. RT and PCR reagents were obtained from Invitrogen Life Technologies (Carlsbad, Calif.). […] The RT reaction was carried out by incubation for 30 minutes at 48° C. Following a 10 minute incubation at 95° C. to activate the PLATIN 9M® Taq, 40 cycles of a two-step PCR protocol were carried out: 95° C. for 15 seconds (denaturation) followed by 60° C. for 1.5 minutes (annealing/extension).
170 μL of RiboGreen® working reagent (RiboGreen® reagent diluted 1:350 in 10 mM Tris-HCl, 1 mM EDTA, pH 7.5) was pipetted into a 96-well plate containing 30 μL purified cellular RNA. The plate was read in a CytoFluor® 4000 (PE Applied Biosystems) with excitation at 485 nm and emission at 530 nm.
Short antisense compounds targeted to a PCSK9 nucleic acid were tested for their effects on PCSK9 mRNA in vitro. The Isis No, gapmer motif and SEQ ID NO of each short antisense compound are shown again in Table 75. Cultured Hep3B cells were treated with 100 nM of short antisense compound. 5-10-5 MOE gapmers targeted to a PCSK9 nucleic acid were used as positive controls. After the treatment period, RNA was isolated from the cells and PCSK9 mRNA levels were measured by quantitative real-time PCR, as described herein. PCSK9 mRNA levels were adjusted according to total RNA content as measured by RIBOGREEN®. Results are presented in Table 75 as percent inhibition of PCSK9 (% Inhib), relative to untreated control cells.

372562 (antisense eG*eT*d[5mC]*dT*dT*dG*dG*dA*dG*dG*dG*d[5mC]*e[5mC]*eG) [compound 372562]
percent inhibition of DGAT2 (rat DGAT2 mRNA; 6.25 nM (Table 82)): 0% | percent inhibition of DGAT2 (rat DGAT2 mRNA; 12.5 nM (Table 82)): 0% | percent inhibition of DGAT2 (rat DGAT2 mRNA; 50.0 nM (Table 82)): 36% | percent inhibition of DGAT2 (rat DGAT2 mRNA; 100.0 nM (Table 82)): 48% | percent inhibition of DGAT2 (rat DGAT2 mRNA; 200.0 nM (Table 82)): 75%

372568 (antisense eG*eA*d[5mC]*dA*d[5mC]*dT*dG*d[5mC]*dA*dG*dG*d[5mC]*e[5mC]*eA) [compound 372568]
percent inhibition of DGAT2 (rat DGAT2 mRNA; 6.25 nM (Table 82)): 0% | percent inhibition of DGAT2 (rat DGAT2 mRNA; 12.5 nM (Table 82)): 0% | percent inhibition of DGAT2 (rat DGAT2 mRNA; 50.0 nM (Table 82)): 26% | percent inhibition of DGAT2 (rat DGAT2 mRNA; 100.0 nM (Table 82)): 72% | percent inhibition of DGAT2 (rat DGAT2 mRNA; 200.0 nM (Table 82)): 69%

400297 (antisense eA*eT*dG*dG*dG*dG*d[5mC]*dA*dA*d[5mC]*dT*dT*e[5mC]*eA) [compound 400297]
% Inhib (PCSK9 mRNA): 0%

400298 (antisense e[5mC]*eA*dT*dG*dG*dG*dG*d[5mC]*dA*dA*d[5mC]*dT*eT*e[5mC]) [compound 400298]
% Inhib (PCSK9 mRNA): 0%

400299 (antisense eA*e[5mC]*dA*dT*dG*dG*dG*dG*d[5mC]*dA*dA*d[5mC]*eT*eT) [compound 400299]
% Inhib (PCSK9 mRNA): 0%

400300 (antisense eG*eG*dG*dA*dT*dG*d[5mC]*dT*d[5mC]*dT*dG*dG*eG*e[5mC]) [compound 400300]
% Inhib (PCSK9 mRNA): 9%

400301 (antisense e[5mC]*eG*d[5mC]*dT*d[5mC]*d[5mC]*dA*dG*dG*dT*dT*d[5mC]*e[5mC]*eA) [compound 400301]
% Inhibition Range (PCSK9 mRNA): 20-30% | % Inhib (PCSK9 mRNA): 27%

400302 (antisense eG*eA*dT*dA*d[5mC]*dA*d[5mC]*d[5mC]*dT*d[5mC]*d[5mC]*dA*e[5mC]*e[5mC]) [compound 400302]
% Inhib (PCSK9 mRNA): 0%

400303 (antisense eA*eG*dA*dT*dA*d[5mC]*dA*d[5mC]*d[5mC]*dT*d[5mC]*d[5mC]*eA*e[5mC]) [compound 400303]
% Inhib (PCSK9 mRNA): 0%

400304 (antisense eG*eA*dG*dA*dT*dA*d[5mC]*dA*d[5mC]*d[5mC]*dT*d[5mC]*e[5mC]*eA) [compound 400304]
% Inhibition Range (PCSK9 mRNA): 10-20% | % Inhib (PCSK9 mRNA): 11%

400305 (antisense eG*e[5mC]*d[5mC]*dT*dG*dT*d[5mC]*dT*dG*dT*dG*dG*eA*eA) [compound 400305]
% Inhibition Range (PCSK9 mRNA): 30-40% | % Inhib (PCSK9 mRNA): 38%

400306 (antisense e[5mC]*eT*dG*dT*d[5mC]*dA*d[5mC]*dA*d[5mC]*dT*dT*dG*e[5mC]*eT) [compound 400306]
% Inhibition Range (PCSK9 mRNA): 40-50% | % Inhib (PCSK9 mRNA): 40%

400310 (antisense eT*e[5mC]*d[5mC]*d[5mC]*dG*dG*d[5mC]*d[5mC]*dG*d[5mC]*dT*dG*eA*e[5mC]) [compound 400310]
% Inhib (PCSK9 mRNA): 8%

400311 (antisense eA*eT*d[5mC]*d[5mC]*d[5mC]*dG*dG*d[5mC]*d[5mC]*dG*d[5mC]*dT*eG*eA) [compound 400311]
% Inhibition Range (PCSK9 mRNA): 10-20% | % Inhib (PCSK9 mRNA): 18%

400312 (antisense e[5mC]*eA*dT*d[5mC]*d[5mC]*d[5mC]*dG*dG*d[5mC]*d[5mC]*dG*d[5mC]*eT*eG) [compound 400312]
% Inhibition Range (PCSK9 mRNA): 20-30% | % Inhib (PCSK9 mRNA): 28%

400313 (antisense eG*e[5mC]*dA*dT*d[5mC]*d[5mC]*d[5mC]*dG*dG*d[5mC]*d[5mC]*dG*e[5mC]*eT) [compound 400313]
% Inhibition Range (PCSK9 mRNA): 10-20% | % Inhib (PCSK9 mRNA): 10%

400314 (antisense eG*eT*dG*d[5mC]*d[5mC]*d[5mC]*dT*dT*d[5mC]*d[5mC]*d[5mC]*dT*eT*eG) [compound 400314]
% Inhibition Range (PCSK9 mRNA): 20-30% | % Inhib (PCSK9 mRNA): 26%

400315 (antisense eA*eT*dG*dA*dG*dG*dG*dT*dG*d[5mC]*d[5mC]*dG*e[5mC]*eT) [compound 400315]
% Inhib (PCSK9 mRNA): 0%

400316 (antisense eT*eA*dT*dG*dA*dG*dG*dG*dT*dG*d[5mC]*d[5mC]*eG*e[5mC]) [compound 400316]
% Inhib (PCSK9 mRNA): 8%

400317 (antisense e[5mC]*eT*dA*dT*dG*dA*dG*dG*dG*dT*dG*d[5mC]*e[5mC]*eG) [compound 400317]
% Inhib (PCSK9 mRNA): 7%

400318 (antisense e[5mC]*e[5mC]*dT*dA*dT*dG*dA*dG*dG*dG*dT*dG*e[5mC]*e[5mC]) [compound 400318]
% Inhibition Range (PCSK9 mRNA): 20-30% | % Inhib (PCSK9 mRNA): 26%

400319 (antisense e[5mC]*eG*dA*dA*dT*dA*dA*dA*d[5mC]*dT*d[5mC]*d[5mC]*eA*eG) [compound 400319]
% Inhib (PCSK9 mRNA): 0%

400320 (antisense e[5mC]*e[5mC]*dG*dA*dA*dT*dA*dA*dA*d[5mC]*dT*d[5mC]*e[5mC]*eA) [compound 400320]
% Inhib (PCSK9 mRNA): 0%

400321 (antisense eT*e[5mC]*d[5mC]*dG*dA*dA*dT*dA*dA*dA*d[5mC]*dT*e[5mC]*e[5mC]) [compound 400321]
% Inhib (PCSK9 mRNA): 0%

400322 (antisense eT*eT*d[5mC]*d[5mC]*dG*dA*dA*dT*dA*dA*dA*d[5mC]*eT*e[5mC]) [compound 400322]
% Inhib (PCSK9 mRNA): 0%

400323 (antisense eG*e[5mC]*d[5mC]*dA*dG*dG*dG*dG*d[5mC]*dA*dG*d[5mC]*eA*eG) [compound 400323]
% Inhib (PCSK9 mRNA): 0%

400324 (antisense eG*eA*dG*dT*dA*dG*dA*dG*dG*d[5mC]*dA*dG*eG*e[5mC]) [compound 400324]
% Inhib (PCSK9 mRNA): 7%

400325 (antisense e[5mC]*e[5mC]*d[5mC]*d[5mC]*dA*dA*dA*dG*dT*d[5mC]*d[5mC]*d[5mC]*e[5mC]*eA) [compound 400325]
% Inhib (PCSK9 mRNA): 4%

400326 (antisense eT*e[5mC]*d[5mC]*d[5mC]*d[5mC]*dA*dA*dA*dG*dT*d[5mC]*d[5mC]*e[5mC]*e[5mC]) [compound 400326]
% Inhib (PCSK9 mRNA): 0%

400328 (antisense eA*e[5mC]*dG*dT*dG*dG*dG*d[5mC]*dA*dG*d[5mC]*dA*eG*e[5mC]) [compound 400328]
% Inhibition Range (PCSK9 mRNA): 10-20% | % Inhib (PCSK9 mRNA): 13%

400329 (antisense e[5mC]*eA*d[5mC]*dG*dT*dG*dG*dG*d[5mC]*dA*dG*d[5mC]*eA*eG) [compound 400329]
% Inhibition Range (PCSK9 mRNA): 10-20% | % Inhib (PCSK9 mRNA): 14%

400332 (antisense e[5mC]*eA*dG*dG*dG*dA*dA*d[5mC]*d[5mC]*dA*dG*dG*e[5mC]*e[5mC]) [compound 400332]
% Inhib (PCSK9 mRNA): 0%

400333 (antisense eT*e[5mC]*dA*dG*dG*dG*dA*dA*d[5mC]*d[5mC]*dA*dG*eG*e[5mC]) [compound 400333]
% Inhib (PCSK9 mRNA): 0%

400334 (antisense e[5mC]*eT*d[5mC]*dA*dG*dG*dG*dA*dA*d[5mC]*d[5mC]*dA*eG*eG) [compound 400334]
% Inhib (PCSK9 mRNA): 0%

400335 (antisense e[5mC]*e[5mC]*dT*d[5mC]*dA*dG*dG*dG*dA*dA*d[5mC]*d[5mC]*eA*eG) [compound 400335]
% Inhib (PCSK9 mRNA): 0%

400336 (antisense eT*e[5mC]*d[5mC]*dT*d[5mC]*dA*dG*dG*dG*dA*dA*d[5mC]*e[5mC]*eA) [compound 400336]
% Inhib (PCSK9 mRNA): 4%

400337 (antisense eG*eT*d[5mC]*d[5mC]*dT*d[5mC]*dA*dG*dG*dG*dA*dA*e[5mC]*e[5mC]) [compound 400337]
% Inhib (PCSK9 mRNA): 0%

400338 (antisense eG*eG*dT*d[5mC]*d[5mC]*dT*d[5mC]*dA*dG*dG*dG*dA*eA*e[5mC]) [compound 400338]
% Inhib (PCSK9 mRNA): 9%

400339 (antisense eT*eG*dG*dT*d[5mC]*d[5mC]*dT*d[5mC]*dA*dG*dG*dG*eA*eA) [compound 400339]
% Inhib (PCSK9 mRNA): 0%

400340 (antisense e[5mC]*eT*dG*dG*dT*d[5mC]*d[5mC]*dT*d[5mC]*dA*dG*dG*eG*eA) [compound 400340]
% Inhib (PCSK9 mRNA): 0%

400341 (antisense eG*e[5mC]*dT*dG*dG*dT*d[5mC]*d[5mC]*dT*d[5mC]*dA*dG*eG*eG) [compound 400341]
% Inhib (PCSK9 mRNA): 0%

400342 (antisense eG*eT*dG*d[5mC]*dT*dG*dG*dG*dG*dG*dG*d[5mC]*eA*eG) [compound 400342]
% Inhib (PCSK9 mRNA): 0%

400343 (antisense eG*eG*dT*dG*d[5mC]*dT*dG*dG*dG*dG*dG*dG*e[5mC]*eA) [compound 400343]
% Inhib (PCSK9 mRNA): 0%
